Reference: US7285552B2, “Drugs containing triazaspiro[5.5]undecane derivatives as the active ingredient” (Ono Pharmaceuticals Co., Ltd., priority 2001, dated 2007)

Columns and labels:
Type in all cases: cell-based
HIV-1BaL = assay: Inhibiting activity to HIV-1 infection to human PBMC (p24 antigen, EIA), HIV-1BaL
Protocol: (§1) Human PBMC (peripheral blood mononuclear cell) was isolated from HIV-negative healthy persons by a Ficol-Hipaque density-gradient centrifugation and incubated for 3 days in the presence of 10 μg/ml PHA (phytohemagglutinin). PHA-stimulated PBMC was suspended in RPMI 1640 containing 10% serum to give a density of 1×10^5 cells/ml and poured into a 96-well microplate. Furthermore, in the presence of a sole test compound in various concentrations or in the co-presence with other anti-HIV inhibitor (such as AZT (zidovudin) or AMD 3100), various HIV-1 cell lines of 50 TCID50 (such as HIV-1LAI, HIV-1NL4-3, HIV-1BaL, HIV-1JRFL, HIV-189.6, HIV-1 HIV-1ERS104pre, HIV-1JSL, HIV-1MM, HIV-1TM and HIV-1MOKW) were exposed. After being incubated for 7 days, the amount of HIV-1p24 antigen on the supernatant liquid of the incubation was measured by an EIA method using Lumipulse F (Fuji Rebio).
(§2) Inhibiting effect to human PBMC infected by HIV-1 HIV-1BaL by the joint use of the compound of Example 2(1) and saquinavir (SQV) which is an anti-HIV inhibitor was investigated. Inhibiting effects of both compounds when the p24 amount where the compounds are not added is defined as 100% are shown in terms of % control.
as §2, with “75(54)” for “2(1)”, “inhibitor […]” for “inhibitor”

[1] = system: Mixed Virus of HIV-1BaL and HIV-1NL4-3 (1:1); assay: Inhibiting activity to HIV-1 infection to human PBMC (p24 antigen, EIA), mixed virus; conditions: HIV-1BaL + HIV-1NL4-3 (1:1)
Protocol: as §1
(§3) Inhibiting effect to HIV-1 infection to human PBMC was investigated by the joint use of the compound of Example 2(1) with AMD 3100. The compound of Example 2(1) in various concentrations and AMD 3100 were added either solely or combinably and an assay was carried out. Inhibiting effects of both compounds when the p24 amount where the compounds are not added is defined as 100% are shown in terms of % control.

HIV-189.6 = assay: Inhibiting activity to HIV-1 infection to human PBMC (p24 antigen, EIA), HIV-1 89.6
Protocol: as §1, §3

HIV-1JSL = assay: Inhibiting activity to HIV-1 infection to human PBMC (p24 antigen, EIA), multidrug resistant HIV-1; conditions: Human immunodeficiency virus 1, PBMC, read-out: IC50, inhibiting effect to infection to human PBMC
Protocol: as §1
(§4) Inhibiting effect of the compound of Example 2(1) to human PBMC infected by wild-type HIV-1 (HIV-1MOKW) and by multidrug resistant HIV-1 (HIV-1JSL and HIV-1MM) to reverse transcriptase inhibitor and protease inhibitor was investigated.

HIV-1MM = assay: as above; conditions: Human immunodeficiency virus 1, PBMC, read-out: IC50, inhibiting effect to infection to human PBMC
Protocol: as §1, §4

HIV-1MOKW = assay: Inhibiting activity to HIV-1 infection to human PBMC (p24 antigen, EIA), wild-type HIV-1; conditions: Human immunodeficiency virus 1, read-out: IC50, inhibiting effect to infection to human PBMC
Protocol: as §1, §4

[2] = Example 2(1) 0.1 μM + AMD 3100 0.01 μM
[3] = Example 2(1) 0.1 μM + AMD 3100 0.1 μM
[4] = Example 2(1) 1 μM + AMD 3100 0.01 μM
[5] = Example 2(1) 1 μM + AMD 3100 0.1 μM

Q: What does the source list for `CCCCN1C(=O)[C@@H]([C@H](O)C2CCCCC2)NC(=O)C12CCN(Cc1ccc(Oc3ccc(C(=O)O)cc3)cc1)CC2.Cl` [Example 75(54), (3R)-1-butyl-2,5-dioxo-3-((1R)-1-hydroxy-1-cyclohexylmethyl)-9-(4-(4-carboxyphenyloxy)phenylmethyl)-1,4,9-triazaspiro[5.5]undecane.hydrochloride]?
A: p24 amount, % control (no compound = 100%) (HIV-1BaL; Example 75(54) 0.2 nM + Saquinavir 1 nM): 66.0 % control; p24 amount, % control (no compound = 100%) (HIV-1BaL; Example 75(54) 0.2 nM + Saquinavir 5 nM): 52.0 % control; p24 amount, % control (no compound = 100%) (HIV-1BaL; Example 75(54) 0.2 nM + Saquinavir 25 nM): 5.7 % control; p24 amount, % control (no compound = 100%) (HIV-1BaL; Example 75(54) 0.2 nM alone): 64.2 % control; p24 amount, % control (no compound = 100%) (HIV-1BaL; Example 75(54) 1 nM + Saquinavir 1 nM): 32.8 % control; p24 amount, % control (no compound = 100%) (HIV-1BaL; Example 75(54) 1 nM + Saquinavir 5 nM): 29.3 % control; p24 amount, % control (no compound = 100%) (HIV-1BaL; Example 75(54) 1 nM + Saquinavir 25 nM): 3.8 % control; p24 amount, % control (no compound = 100%) (HIV-1BaL; Example 75(54) 1 nM alone): 34.2 % control; p24 amount, % control (no compound = 100%) (HIV-1BaL; Example 75(54) 5 nM + Saquinavir 1 nM): 10.8 % control; p24 amount, % control (no compound = 100%) (HIV-1BaL; Example 75(54) 5 nM + Saquinavir 5 nM): 6.1 % control; p24 amount, % control (no compound = 100%) (HIV-1BaL; Example 75(54) 5 nM + Saquinavir 25 nM): 1.6 % control; p24 amount, % control (no compound = 100%) (HIV-1BaL; Example 75(54) 5 nM alone): 10.6 % control

Q: Which results are given for `c1cc(CN2CCCNCCNCCCNCC2)ccc1CN1CCCNCCNCCCNCC1` [AMD 3100, reference compound]?
A: p24 amount, % control (no compound = 100%) ([1]; AMD 3100 0.01 μM alone): 59.1 % control; p24 amount, % control (no compound = 100%) ([1]; AMD 3100 0.1 μM alone): 44.2 % control; p24 amount, % control (no compound = 100%) (HIV-189.6; AMD 3100 0.01 μM alone): 58.3 % control; p24 amount, % control (no compound = 100%) (HIV-189.6; AMD 3100 0.1 μM alone): 6.9 % control

Q: For `CC(C)(C)NC(=O)[C@@H]1C[C@@H]2CCCC[C@@H]2CN1C[C@@H](O)[C@H](Cc1ccccc1)NC(=O)[C@H](CC(N)=O)NC(=O)c1ccc2ccccc2n1` [Saquinavir, saquinavir, reference compound], which “p24 amount, % control (no compound = 100%)” value (HIV-1BaL; Saquinavir 1 nM alone) is on record?
A: 78.1 % control

Q: What about the “p24 amount, % control (no compound = 100%)” value (HIV-1BaL; Saquinavir 5 nM alone) of the same compound?
A: 67.7 % control

Q: What about the “p24 amount, % control (no compound = 100%)” value (HIV-1BaL; Saquinavir 0.01 μM alone) of the same compound?
A: 53.8 % control

Q: And the “p24 amount, % control (no compound = 100%)” value (HIV-1BaL; Saquinavir 25 nM alone)?
A: 5.9 % control

Q: Which “p24 amount, % control (no compound = 100%)” value [1, 2] does the source give for `CCCCN1C(=O)C(CC2CCCCC2)NC(=O)C12CCN(Cc1ccc3c(c1)OCCO3)CC2.Cl` (stereo not shown) [Example 2(1), 9-(1,4-benzodioxan-6-ylmethyl)-1-butyl-3-cyclohexylmethyl-2,5-dioxo-1,4,9-triazaspiro[5.5]undecane.hydrochloride] here?
A: 32.1 % control

Q: What about the “p24 amount, % control (no compound = 100%)” value [1, 3] of the same compound?
A: 17.8 % control

Q: What about the “p24 amount, % control (no compound = 100%)” value ([1]; Example 2(1) 0.1 μM alone) of the same compound?
A: 63.8 % control

Q: What about the “p24 amount, % control (no compound = 100%)” value [1, 4] of the same compound?
A: 10.5 % control

Q: What about the “p24 amount, % control (no compound = 100%)” value [1, 5] of the same compound?
A: 1.5 % control

Q: And the “p24 amount, % control (no compound = 100%)” value ([1]; Example 2(1) 1 μM alone)?
A: 52.4 % control

Q: What about the IC50 (HIV-1JSL) of the same compound?
A: 64 ± 11 nM

Q: And the IC50 (HIV-1MM)?
A: 48 ± 62 nM

Q: And the IC50 (HIV-1MOKW)?
A: 40 ± 29 nM

Q: And the “p24 amount, % control (no compound = 100%)” value (HIV-189.6; [2])?
A: 38.0 % control

Q: What about the “p24 amount, % control (no compound = 100%)” value (HIV-189.6; [3]) of the same compound?
A: 6.0 % control

Q: And the “p24 amount, % control (no compound = 100%)” value (HIV-189.6; Example 2(1) 0.1 μM alone)?
A: 72.0 % control

Q: And the “p24 amount, % control (no compound = 100%)” value (HIV-189.6; [4])?
A: 15.1 % control

Q: What about the “p24 amount, % control (no compound = 100%)” value (HIV-189.6; [5]) of the same compound?
A: 0.7 % control

Q: And the “p24 amount, % control (no compound = 100%)” value (HIV-189.6; Example 2(1) 1 μM alone)?
A: 64.5 % control

Q: What about the “p24 amount, % control (no compound = 100%)” value (HIV-1BaL; Example 2(1) 0.1 μM + Saquinavir 0.01 μM) of the same compound?
A: 44.3 % control

Q: And the “p24 amount, % control (no compound = 100%)” value (HIV-1BaL; Example 2(1) 0.1 μM alone)?
A: 75.4 % control
